Laboratory results taken from patent publication US20080221132A1, “Multi-Functional Small Molecules as Anti-Proliferative Agents” (priority 2006, published 2008).
Where two headings read alike, the source gives them in different places.

What was measured:
[1] = test system: Breast_SkBr3 (SKBr3, breast carcinoma); test: Cell proliferation assay (ATPlite), SkBr3; format: cell-based; details: Homo sapiens, SK-BR-3
Protocol: (§1) A representative number of compounds were assayed against several different cell lines using the cell proliferation assay:
(§2) Cell Proliferation Assay:
(§3) Cancer cell lines were plated at 5,000 to 10,000 per well in 96-well flatted bottomed plates with various concentration of compounds. […] Growth inhibition was accessed by adenosine triphosphate (ATP) content assay using Perkin Elmer ATPlite kit. ATPlite is an ATP monitoring system based on firefly luciferase. Briefly, 25 μl of mammalian cell lysis solution was added to 50 μl of phenol red-free culture medium per well to lyse the cells and stabilize the ATP. 25 μl of substrate solution was then added to the well and subsequently the luminescence was measured.

[2] = test system: Colon_HCT116 (HCT116, colon cancer); test: Cell proliferation assay (ATPlite), HCT116; format: cell-based; details: Homo sapiens, HCT-116; TABLE C; 72 hours, 0.5% fetal bovine serum, ATP content; read-out: IC50 grading, Colon_HCT116
Protocol: as §1, §2, §3

Lung_H2122 = test: Cell proliferation assay (ATPlite), H2122; format: cell-based; details: Homo sapiens, NCI-H2122; TABLE C; 72 hours, 0.5% fetal bovine serum, ATP content; read-out: IC50 grading, Lung_H2122
Protocol: as §1, §2
(§4) Cancer cell lines were plated at 5,000 to 10,000 per well in 96-well flatted bottomed plates with various concentration of compounds. The cells were incubated with compounds for 72 hours in the presence of 0.5% of fetal bovine serum. Growth inhibition was accessed by adenosine triphosphate (ATP) content assay using Perkin Elmer ATPlite kit. ATPlite is an ATP monitoring system based on firefly luciferase. Briefly, 25 μl of mammalian cell lysis solution was added to 50 μl of phenol red-free culture medium per well to lyse the cells and stabilize the ATP. 25 μl of substrate solution was then added to the well and subsequently the luminescence was measured.

Lung_H460 = test: Cell proliferation assay (ATPlite), H460; format: cell-based; details: Homo sapiens, NCI-H460; TABLE C; 72 hours, 0.5% fetal bovine serum, ATP content; read-out: IC50 grading, Lung_H460
Protocol: as §1, §2, §4

Pancreas_Capan1 = test: Cell proliferation assay (ATPlite), Capan1; format: cell-based; details: Homo sapiens, CAPAN-1; TABLE C; 72 hours, 0.5% fetal bovine serum, ATP content; read-out: IC50 grading, Pancreas_Capan1
Protocol: as §1, §2, §4

Pancreas_HPAC = test: Cell proliferation assay (ATPlite), HPAC; format: cell-based; details: Homo sapiens, TABLE C, 72 hours, 0.5% fetal bovine serum, ATP content, read-out: IC50 grading, Pancreas_HPAC
Protocol: as §1, §2, §4

Ret Kinase = Ret Kinase (Homo sapiens, UniProt P07949); test: Kinase panel (TABLE F), Ret Kinase; format: biochemical
[3] = both, Sprague Dawley, rat, in vivo, iv, 8 days
Protocol: The experimental methods used for the toxicity study below are described as follows:
2. Single dosing MTD in rats • a. Sprague Dawley, male and female, 240-260 gram • b. Dosing at 0, 25, 50, 100, 200 mg/kg, iv infusion 5 min • c. 6 rats per group (3 male and 3 female)
Stock solution is diluted with 30% CAPTISOL before use.

Chain of Ret Kinase (P07949 29-1114): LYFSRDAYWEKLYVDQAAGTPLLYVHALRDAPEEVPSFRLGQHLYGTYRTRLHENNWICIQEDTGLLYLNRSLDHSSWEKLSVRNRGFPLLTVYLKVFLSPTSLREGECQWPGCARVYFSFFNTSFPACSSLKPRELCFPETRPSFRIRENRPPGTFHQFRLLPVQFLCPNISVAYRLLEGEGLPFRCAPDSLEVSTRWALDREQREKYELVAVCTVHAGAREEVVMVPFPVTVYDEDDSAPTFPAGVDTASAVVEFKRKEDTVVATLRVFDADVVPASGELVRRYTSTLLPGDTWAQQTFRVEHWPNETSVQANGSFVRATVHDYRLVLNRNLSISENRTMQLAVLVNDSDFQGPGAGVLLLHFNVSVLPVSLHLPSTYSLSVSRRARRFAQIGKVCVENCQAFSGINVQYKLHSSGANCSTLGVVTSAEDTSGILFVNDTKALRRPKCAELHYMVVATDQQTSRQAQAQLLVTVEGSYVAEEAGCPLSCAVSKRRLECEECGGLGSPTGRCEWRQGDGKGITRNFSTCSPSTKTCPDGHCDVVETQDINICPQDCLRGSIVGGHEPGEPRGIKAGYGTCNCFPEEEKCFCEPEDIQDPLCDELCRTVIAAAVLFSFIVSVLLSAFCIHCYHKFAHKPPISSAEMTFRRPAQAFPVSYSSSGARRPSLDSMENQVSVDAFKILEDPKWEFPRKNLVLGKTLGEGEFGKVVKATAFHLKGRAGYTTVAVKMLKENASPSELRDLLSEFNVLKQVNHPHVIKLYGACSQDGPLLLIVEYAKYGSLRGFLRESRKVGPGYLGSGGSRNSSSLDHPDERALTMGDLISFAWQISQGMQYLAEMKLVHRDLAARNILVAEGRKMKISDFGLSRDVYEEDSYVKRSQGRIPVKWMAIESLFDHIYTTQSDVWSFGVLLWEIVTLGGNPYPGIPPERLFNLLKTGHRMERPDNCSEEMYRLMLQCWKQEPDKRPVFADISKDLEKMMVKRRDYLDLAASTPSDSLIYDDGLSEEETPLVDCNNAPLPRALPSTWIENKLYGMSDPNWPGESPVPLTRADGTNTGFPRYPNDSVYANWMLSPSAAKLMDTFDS

C#Cc1cccc(Nc2ncnc3cc(OC)c(OCCCCCCC(=O)NO)cc23)c1 [Compound 12]
IC50 ([1]; TABLE C, 72 hours, 0.5% fetal bovine serum, ATP content, read-out: IC50 grading, Breast_SkBr3): 100 to 1000 nM
IC50 ([1]; TABLE D, Breast carcinoma, read-out: IC50 grading, SKBr3): 50 to 500 nM
IC50 [2]: 100 to 1000 nM
IC50 (Lung_H2122): 100 to 1000 nM
IC50 (Lung_H460): 100 to 1000 nM
IC50 (Pancreas_Capan1): 100 to 1000 nM
IC50 (Pancreas_HPAC): 1000 to 10000 nM
inhibition at 5 µM (Ret Kinase): 93%
dose without significant change in body weight [3]: up to 200 mg/kg
